Experimental findings from patent US20050260582A1, “Cell proliferation inhibitors comprising ets transcription factor or gene encoding the same” (priority 2001, published 2005) are described below.

One assay has as its system A549 cells. The experiment in a line: Matrigel invasion assay. To be noted: cells passed through 8-μm filter after 24 hours; BB94-treated A549 as comparison. The format is cell-based, human. The source says:
(§1) Moreover, it has been reported that metastasis from epithelium to mesenchyme is induced by lack of E-cadherin or activation of MMPs [Llorens et al., 1998], expression of MMPs and E-cadherin was next examined. The right side in FIG. 5 is a photograph in place of a drawing, showing results of analyzing an MMP-9 protein content of A549 cell and MEF gene overexpressing cell in a serum-free culture supernatant (conditioned media) by western blotting using anti-MMP-9 antibody, and the left side in FIG. 5 is a photograph in place of a drawing, showing results of gelatin-zymography of MMP-9. […] In an upper chamber of FIG. 6, 2.5×10^5 A549 cells (left side), MEF gene overexpressing cells (center) and A549 cells (right side) treated with BB94 were inoculated respectively, and the numbers of cells on the lower side which were passed through a 8-μm filter were counted. […]
200 μl of each cell suspension prepared to a concentration of 1.0×10^6 cells/ml was added to an upper layer of a matrigel invasion chamber (BD Biocoat Matrigel) having 8-μm pores, and 700 μl of a serum-free culture solution was added thereto. After 24 hours, the cells invaded in the lower layer of the membrane filter were stained with hematoxylin, and the number of the cells was then counted under a microscope.

A further assay deals with A549 cell. Description: Cell morphology and F-actin staining. The format is cell-based, human. The method, then:
In FIG. 4, A549 cell, MEF gene overexpressing […] cell and A549 cell treated with BB94 (10 μM) are shown respectively from the left side.
as §1, with “In order to examine the decrease in MMP-9 activity in MEF gene overexpressing cell, A549 cell was treated with BB94 as an MMP inhibitor. […] Generally, such a morphological change thereof indicates reduction of an invasion activity. Accordingly, for examining an invasive function of A549 cell and MEF gene overexpressing cell, matrigel invasion assay was performed. In” for “In”

For a further assay, the system named is IL-8 promoter. Description: Luciferase assay using IL-8 promoter. The assay is classed as cell-based, human. The conditions noted are these: 5-azacytidine (1 μM) and trichosamine A (1 μM). The method, then: (§2) Accordingly, the present inventors further examined the function of MEF on transcription of MMP-9 and IL-8. For examining whether MEF directly suppresses transcription of MMP-9 and IL-8, the present inventors performed luciferase assay using MMP-9 and IL-8 promoters. […] In each case, the ordinate represents a relative luciferase activity, and the abscissa represents Basal, A549 cell, a case of adding 1.0 μM MEF, a case of adding 3.0 μM MEF, a case of adding 5.0 μM MEF and a case of adding MEF gene overexpressing cell (clone 71) from the left respectively. In A549 cell, a high luciferase activity of MMP-9 and IL-8 promoters was observed (FIG. 20). […] In each graph, the ordinate represents a relative luciferase activity, and the abscissa represents Basal, A549 cell, a case of adding Est-2 and a case of adding anti-Est-2 from the left respectively.
(§3) The finding of MMP-9 activation with ETS-2 is also backed up by the study on target deletion of Ets-2 using mice [Yamamoto, 1998]. Since MEF is, unlike PU-1, free from a repressor region [Kihara-Negishi, 2001] and interacts with HDAC or Sin3A having a deacetylase activity, the present inventors next assumed that MEF is a competitor with ETS-2 in ets binding sites of these promoters. […]

A further assay concerns MEF expression. Description: MEF expression by RT-PCR. The format is cell-based, human. The source says:
Next, since methylcytosine is recognized with methylated DNA bound to protein MeCP2 interacting with HDAC [Ng et al, 1999], the present inventors examined the effect given by the combined use of 5-aza-2′-deoxycytidine (5-azacytidine) as a demethylation agent and tricostatin A as a histone deacylase inhibitor in MEF expression of A549 cell. The results are shown in photographs in place of drawings in FIG. 3. […] GAPDH is shown as a control. In FIG. 3, HEK293 cell, A549 cell and Caco-2 cell are shown from the left side in an upper panel, and A549 cell and Caco-2 cell from the left side in a lower panel. In FIG. 3, DMSO indicates dimethyl sulfoxide, 5-AC indicates 5-azacytidine and TSA indicates tricostatin A respectively. […] The low MEF expression in Hela cell is considered to be attributed to any other unknown mechanism. This is also backed up by the report that Hela cell lacking in known methylation-dependent inhibitor MeCP2 becomes a silence methylation gene using another route including MBD2 [Ng et al., 1999].
Isogene (Nippon Gene) was used in extraction of all RNAs from culture cells. For comparison of various gene expressions of culture cells, RT-PCR was conducted. RNA PCR kit (AMV) ver. 2.1 (TaKaRa) was used for RT-PCR. The methods by which the gene expression identified in the invention are outlined below.
A reverse transcription reaction (at 42° C. for 60 minutes, at 99° C. for 5 minutes, at 5° C. for 5 minutes) was performed using 1 μg of all RNAs extracted from A549 and other cells as templates and oligo dT primers. Thereafter, PCR (at 94° C. for 2 minutes—1 cycle; at 94° C. for 30 seconds, at 58° C. for 30 seconds, at 72° C. for 30 seconds—40 cycles) was performed using an upstream primer (5′-[…]-3,) and a downstream primer (5,-[…]-3′).

The next assay relates to MMP-9 promoter. Description: Luciferase assay using MMP-9 promoter. To be noted: 5-azacytidine (1 μM) and trichosamine A (1 μM). The format is cell-based, human. The method, then:
as §2, §3

Assay [1] deals with human umbilical vein endothelial cells (HUVECs). Description: Migration of HUVECs toward serum-free culture supernatant. The assay is classed as cell-based. The conditions noted are these: 8-μm filter, 24 hours; A549 supernatant accelerated migration; bFGF positive control. The source says:
Successively, it was further examined whether MEF gene overexpression of A549 cells influences metastasis of vessel endothelial cells. […] Human umbilical vein endothelial cells (HUVECs) were inoculated in an upper chamber, and cells migrating in a medium of a lower chamber were observed through a 8-μm filter.
The results are shown in FIG. 17 by photographs in place of drawings. […] In FIG. 18, the ordinate represents a (%) migration activity relative to a non-treated case, and the abscissa represents a non-treated case, a case of bFGF, a case of A549 cell and a case of MEF gene overexpressing cell (clone 71) from the left side respectively.
[…] of a cell suspension containing HUVECs at a concentration of 2.5×10^5 cells/ml was added to an upper layer of a matrigel invasion chamber (BD Biocoat Matrigel) having 8-μm pores. Subsequently, 700 μl of a serum-free culture supernatant produced according to 1. of Example 10 was added to a lower layer. After 24 hours, HUVECs invaded into the lower layer of the membrane filter were stained with hematoxylin, and the number of cells was then counted under a microscope.

Regarding `CNC(=O)[C@H](Cc1ccccc1)NC(=O)[C@H](CC(C)C)[C@H](CSc1cccs1)C(=O)NO` [BB94], in the assay on A549 cells, the invasion activity result is “inhibitory effect”. The F-actin localization entry in the assay on A549 cell (MEF gene overexpression or BB94 10 μM) was “localization of F-actin in the interface between cells”. The morphological change entry in the assay with A549 cell (MEF gene overexpression, BB94 10 μM or 5-azacytidine 10 μm) is listed as “induced typical morphological change”.
For `CC(/C=C/C(=O)NO)=C\[C@@H](C)C(=O)c1ccc(N(C)C)cc1` [tricostatin A], the IL-8 promoter activity entry in the assay on IL-8 promoter is on record as “inhibited”. For the same compound, the MEF expression entry with MEF expression (A549 cell, combined use of 5-azacytidine (1 μM) and tricostatin A (300 μM)) was “clearly increased the MEF expression”; in the assay with MEF expression (A549 cell, single use of the reagent), “increased the MEF expression only slightly”; with MEF expression (Caco-2 cell, 5-azacytidine and tricostatin A), “same effect was observed”; in the assay with MEF expression (HEK293 cell, 5-azacytidine and tricostatin A) it was “not in HEK293 and Hela cells”; with MEF expression (Hela cell, 5-azacytidine and tricostatin A), “not in HEK293 and Hela cells”. Moreover, the MMP-9 promoter activity result with MMP-9 promoter is “inhibited”.
For the compound “bFGF: basic FGF, positive control for HUVEC migration”, the “migration of HUVECs” value in assay [1] is listed as “increased migration of HUVECs”.
